{"source": "patent US7232570B2", "about": "“ERAAP modulators regulate immune responses” (Regents of the University of California, priority 2002, dated 2007)", "tested_on": "Sprague-Dawley rats", "assay": "Phenotypic and functional indicia of immunosuppression in treated rats", "type": "in vivo", "conditions": "e.g. influenza and lymphocytic coriomeningitis virus", "data": [{"smiles": "CC(C)C[C@H](N)CS", "note": "[leucinethiol]", "values": [{"measurement": "resistance to viral challenge", "result": "reduced"}]}]}
